Assay results published in ChEMBL document CHEMBL1909046, “DrugMatrix in vitro pharmacology data”.

Test system: not listed separately
Test: DRUGMATRIX: Calcium Channel Type L, Dihydropyridine radioligand binding (ligand: [3H] Nitrendipine)
Type: cell membranes, Rattus norvegicus, Wistar, Cerebral cortex, Membrane
Conditions: Not Active = under 50% inhibition at 10 µM
In the case of C[C@H]1[C@H](NC(=O)/C(=N\OC(C)(C)C(=O)O)c2csc(N)n2)C(=O)N1S(=O)(=O)O [AZTREONAM], the IC50 is reported as “Not Active” and the Ki is reported as “Not Active”. In the case of O=C(O)CCNC(=O)c1ccc(/N=N/c2ccc(O)c(C(=O)O)c2)cc1 [BALSALAZIDE], the IC50 is reported as “Not Active” and the Ki is reported as “Not Active”. For Cn1c(=O)c2c(ncn2C)n(C)c1=O [CAFFEINE], the IC50 was “Not Active” and the Ki was “Not Active”. With ClC(Cl)(Cl)Cl [CARBON TETRACHLORIDE] the IC50 was “Not Active” and the Ki was “Not Active”. In the case of CO/N=C(\C(=O)N[C@@H]1C(=O)N2C(C(=O)O)=C(COC(C)=O)CS[C@H]12)c1csc(N)n1 [CEFOTAXIME], the IC50 is reported as “Not Active” and the Ki is reported as “Not Active”. In the case of CNC1=Nc2ccc(Cl)cc2C(c2ccccc2)=[N+]([O-])C1 [CHLORDIAZEPOXIDE], the IC50 is reported as “Not Active” and the Ki is reported as “Not Active”.

Target: Sigma non-opioid intracellular receptor 1 (Homo sapiens, UniProt Q99720)
Sequence (Q99720 whole entry): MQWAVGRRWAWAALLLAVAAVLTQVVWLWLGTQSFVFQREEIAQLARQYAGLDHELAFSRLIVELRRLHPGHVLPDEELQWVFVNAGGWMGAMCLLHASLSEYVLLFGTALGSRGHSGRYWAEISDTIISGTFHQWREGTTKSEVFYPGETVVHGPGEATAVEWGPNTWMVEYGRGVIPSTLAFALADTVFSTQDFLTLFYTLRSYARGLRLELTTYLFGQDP
Test: DRUGMATRIX: Sigma1 radioligand binding (ligand: [3H] Haloperidol)
Type: cell membranes, Jurkat, Membrane
Conditions: jurkat; Not Active = under 50% inhibition at 10 µM
For C[C@H]1[C@H](NC(=O)/C(=N\OC(C)(C)C(=O)O)c2csc(N)n2)C(=O)N1S(=O)(=O)O [AZTREONAM], the IC50 was “Not Active”. For O=C(O)CCNC(=O)c1ccc(/N=N/c2ccc(O)c(C(=O)O)c2)cc1 [BALSALAZIDE], the IC50 was “Not Active”. In the case of Cn1c(=O)c2c(ncn2C)n(C)c1=O [CAFFEINE], the IC50 is reported as “Not Active”. For ClC(Cl)(Cl)Cl [CARBON TETRACHLORIDE], the IC50 was “Not Active”. With CO/N=C(\C(=O)N[C@@H]1C(=O)N2C(C(=O)O)=C(COC(C)=O)CS[C@H]12)c1csc(N)n1 [CEFOTAXIME] the IC50 was “Not Active”. In the case of CNC1=Nc2ccc(Cl)cc2C(c2ccccc2)=[N+]([O-])C1 [CHLORDIAZEPOXIDE], the IC50 is reported as “Not Active”.

Target: C-C chemokine receptor type 5 (Homo sapiens, UniProt P51681); further: in other assays of this panel Not Active means under 50% inhibition at 10 µM
Sequence (P51681 whole entry): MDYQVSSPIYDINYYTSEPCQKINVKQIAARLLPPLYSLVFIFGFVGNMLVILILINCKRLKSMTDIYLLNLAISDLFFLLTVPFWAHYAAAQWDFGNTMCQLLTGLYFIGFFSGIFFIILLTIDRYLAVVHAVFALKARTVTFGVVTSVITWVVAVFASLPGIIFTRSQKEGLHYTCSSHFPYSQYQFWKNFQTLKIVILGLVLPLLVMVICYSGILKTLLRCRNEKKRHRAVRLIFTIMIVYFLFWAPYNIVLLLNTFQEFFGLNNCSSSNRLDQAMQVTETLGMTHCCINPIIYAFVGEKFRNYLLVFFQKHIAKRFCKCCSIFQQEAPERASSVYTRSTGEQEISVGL
Type: cell membranes, Membrane
Conditions: hek293
With C[C@H]1[C@H](NC(=O)/C(=N\OC(C)(C)C(=O)O)c2csc(N)n2)C(=O)N1S(=O)(=O)O [AZTREONAM] the IC50 was “Not Active”. With O=C(O)CCNC(=O)c1ccc(/N=N/c2ccc(O)c(C(=O)O)c2)cc1 [BALSALAZIDE] the IC50 was “Not Active”. With Cn1c(=O)c2c(ncn2C)n(C)c1=O [CAFFEINE] the IC50 was “Not Active”. With ClC(Cl)(Cl)Cl [CARBON TETRACHLORIDE] the IC50 was “Not Active”. For CO/N=C(\C(=O)N[C@@H]1C(=O)N2C(C(=O)O)=C(COC(C)=O)CS[C@H]12)c1csc(N)n1 [CEFOTAXIME], the IC50 was “Not Active”. For CNC1=Nc2ccc(Cl)cc2C(c2ccccc2)=[N+]([O-])C1 [CHLORDIAZEPOXIDE], the IC50 was “Not Active”.

Target: T1, C-X-C chemokine receptor type 2 (Homo sapiens, UniProt P25025); further: in other assays of this panel Not Active means under 50% inhibition at 10 µM
T1 sequence (P25025 whole entry): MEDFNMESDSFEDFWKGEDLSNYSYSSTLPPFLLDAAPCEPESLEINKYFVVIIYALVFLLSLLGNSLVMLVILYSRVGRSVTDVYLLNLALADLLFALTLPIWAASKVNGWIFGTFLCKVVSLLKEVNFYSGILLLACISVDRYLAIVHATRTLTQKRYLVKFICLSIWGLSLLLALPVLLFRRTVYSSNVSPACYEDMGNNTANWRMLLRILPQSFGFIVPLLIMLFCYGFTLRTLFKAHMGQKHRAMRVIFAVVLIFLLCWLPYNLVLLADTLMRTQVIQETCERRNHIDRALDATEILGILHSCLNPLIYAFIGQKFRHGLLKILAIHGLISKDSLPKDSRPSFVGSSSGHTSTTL
Type: cell membranes, Membrane
Conditions: cho-k1
In the case of C[C@H]1[C@H](NC(=O)/C(=N\OC(C)(C)C(=O)O)c2csc(N)n2)C(=O)N1S(=O)(=O)O [AZTREONAM], the IC50 is reported as “Not Active”. For O=C(O)CCNC(=O)c1ccc(/N=N/c2ccc(O)c(C(=O)O)c2)cc1 [BALSALAZIDE], the IC50 was “Not Active”. With Cn1c(=O)c2c(ncn2C)n(C)c1=O [CAFFEINE] the IC50 was “Not Active”. In the case of ClC(Cl)(Cl)Cl [CARBON TETRACHLORIDE], the IC50 is reported as “Not Active”. In the case of CO/N=C(\C(=O)N[C@@H]1C(=O)N2C(C(=O)O)=C(COC(C)=O)CS[C@H]12)c1csc(N)n1 [CEFOTAXIME], the IC50 is reported as “Not Active”. With CNC1=Nc2ccc(Cl)cc2C(c2ccccc2)=[N+]([O-])C1 [CHLORDIAZEPOXIDE] the IC50 was “Not Active”.

Target: T2, Neuropeptide Y receptor type 2 (Homo sapiens, UniProt P49146); further: in other assays of this panel Not Active means under 50% inhibition at 10 µM
T2 sequence (P49146 whole entry): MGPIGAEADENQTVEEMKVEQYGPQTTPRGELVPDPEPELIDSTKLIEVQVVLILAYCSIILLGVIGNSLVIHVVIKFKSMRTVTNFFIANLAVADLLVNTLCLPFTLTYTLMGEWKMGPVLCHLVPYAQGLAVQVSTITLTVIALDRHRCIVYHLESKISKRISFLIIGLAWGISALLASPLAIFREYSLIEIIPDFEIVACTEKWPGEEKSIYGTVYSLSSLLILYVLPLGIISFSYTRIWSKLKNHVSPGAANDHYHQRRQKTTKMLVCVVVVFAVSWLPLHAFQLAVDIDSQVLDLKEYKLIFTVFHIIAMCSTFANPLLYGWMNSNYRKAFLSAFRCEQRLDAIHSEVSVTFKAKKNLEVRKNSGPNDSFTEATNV
Type: cell membranes, Membrane
Conditions: kan-ts
With C[C@H]1[C@H](NC(=O)/C(=N\OC(C)(C)C(=O)O)c2csc(N)n2)C(=O)N1S(=O)(=O)O [AZTREONAM] the IC50 was “Not Active”. In the case of O=C(O)CCNC(=O)c1ccc(/N=N/c2ccc(O)c(C(=O)O)c2)cc1 [BALSALAZIDE], the IC50 is reported as “Not Active”. In the case of Cn1c(=O)c2c(ncn2C)n(C)c1=O [CAFFEINE], the IC50 is reported as “Not Active”. In the case of ClC(Cl)(Cl)Cl [CARBON TETRACHLORIDE], the IC50 is reported as “Not Active”. For CO/N=C(\C(=O)N[C@@H]1C(=O)N2C(C(=O)O)=C(COC(C)=O)CS[C@H]12)c1csc(N)n1 [CEFOTAXIME], the IC50 was “Not Active”. In the case of CNC1=Nc2ccc(Cl)cc2C(c2ccccc2)=[N+]([O-])C1 [CHLORDIAZEPOXIDE], the IC50 is reported as “Not Active”.

Target: T3, Nitric oxide synthase, inducible (Mus musculus, UniProt P29477);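 further: inhibition of iNOS enzyme activity measured with L-arginine as substrate; in other assays of this panel Not Active means under 50% inhibition at 10 µM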
T3 sequence (P29477 whole entry): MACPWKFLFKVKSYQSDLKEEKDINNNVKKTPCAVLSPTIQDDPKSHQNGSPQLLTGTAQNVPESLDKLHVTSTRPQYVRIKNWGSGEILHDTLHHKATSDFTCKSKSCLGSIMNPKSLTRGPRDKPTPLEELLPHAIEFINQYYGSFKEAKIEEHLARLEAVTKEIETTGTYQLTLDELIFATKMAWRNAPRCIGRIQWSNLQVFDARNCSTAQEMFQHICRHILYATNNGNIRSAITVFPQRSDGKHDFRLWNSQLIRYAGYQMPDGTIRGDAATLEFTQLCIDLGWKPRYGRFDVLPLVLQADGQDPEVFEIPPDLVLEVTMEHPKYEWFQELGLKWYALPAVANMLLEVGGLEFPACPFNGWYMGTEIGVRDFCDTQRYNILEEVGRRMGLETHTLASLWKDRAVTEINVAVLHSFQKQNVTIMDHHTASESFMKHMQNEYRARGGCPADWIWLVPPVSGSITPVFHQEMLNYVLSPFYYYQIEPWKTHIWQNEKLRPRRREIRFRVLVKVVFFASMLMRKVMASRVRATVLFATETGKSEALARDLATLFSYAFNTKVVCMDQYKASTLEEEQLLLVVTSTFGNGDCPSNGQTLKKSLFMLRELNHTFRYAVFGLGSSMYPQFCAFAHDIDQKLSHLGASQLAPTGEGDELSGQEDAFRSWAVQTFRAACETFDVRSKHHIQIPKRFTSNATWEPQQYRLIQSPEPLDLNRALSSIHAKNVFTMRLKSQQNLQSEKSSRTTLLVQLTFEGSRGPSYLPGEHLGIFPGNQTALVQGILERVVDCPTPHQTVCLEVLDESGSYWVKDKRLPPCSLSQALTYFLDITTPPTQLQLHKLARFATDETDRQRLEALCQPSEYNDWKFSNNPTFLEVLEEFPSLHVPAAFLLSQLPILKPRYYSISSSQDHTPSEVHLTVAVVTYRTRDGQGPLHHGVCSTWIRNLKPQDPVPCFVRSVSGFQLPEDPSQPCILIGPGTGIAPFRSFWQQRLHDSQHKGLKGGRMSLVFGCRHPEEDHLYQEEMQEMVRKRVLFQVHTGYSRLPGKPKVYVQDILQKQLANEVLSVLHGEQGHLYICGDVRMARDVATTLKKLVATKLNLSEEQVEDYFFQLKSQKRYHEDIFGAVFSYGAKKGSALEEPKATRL
Parameters: species or system Escherichia coli
Conditions: not given
In the case of C[C@H]1[C@H](NC(=O)/C(=N\OC(C)(C)C(=O)O)c2csc(N)n2)C(=O)N1S(=O)(=O)O [AZTREONAM], the IC50 is reported as “Not Active”. With O=C(O)CCNC(=O)c1ccc(/N=N/c2ccc(O)c(C(=O)O)c2)cc1 [BALSALAZIDE] the IC50 was “Not Active”. For Cn1c(=O)c2c(ncn2C)n(C)c1=O [CAFFEINE], the IC50 was “Not Active”. In the case of ClC(Cl)(Cl)Cl [CARBON TETRACHLORIDE], the IC50 is reported as “Not Active”. In the case of CO/N=C(\C(=O)N[C@@H]1C(=O)N2C(C(=O)O)=C(COC(C)=O)CS[C@H]12)c1csc(N)n1 [CEFOTAXIME], the IC50 is reported as “Not Active”. For CNC1=Nc2ccc(Cl)cc2C(c2ccccc2)=[N+]([O-])C1 [CHLORDIAZEPOXIDE], the IC50 was “Not Active”.

Target: T4, Neutrophil elastase (Homo sapiens, UniProt P08246)
T4 sequence (P08246 whole entry): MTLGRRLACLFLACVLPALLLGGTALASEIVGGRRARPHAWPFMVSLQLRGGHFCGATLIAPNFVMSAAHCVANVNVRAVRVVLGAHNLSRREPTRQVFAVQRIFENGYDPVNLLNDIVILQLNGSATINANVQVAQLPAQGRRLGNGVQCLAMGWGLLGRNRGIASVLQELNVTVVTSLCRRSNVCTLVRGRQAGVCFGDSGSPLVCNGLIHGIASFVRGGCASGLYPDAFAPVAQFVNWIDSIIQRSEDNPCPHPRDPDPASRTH
Type: tissue-based
Conditions: not given
For C[C@H]1[C@H](NC(=O)/C(=N\OC(C)(C)C(=O)O)c2csc(N)n2)C(=O)N1S(=O)(=O)O [AZTREONAM], the IC50 was “Not Active”. With O=C(O)CCNC(=O)c1ccc(/N=N/c2ccc(O)c(C(=O)O)c2)cc1 [BALSALAZIDE] the IC50 was “Not Active”. For Cn1c(=O)c2c(ncn2C)n(C)c1=O [CAFFEINE], the IC50 was “Not Active”. With ClC(Cl)(Cl)Cl [CARBON TETRACHLORIDE] the IC50 was “Not Active”. With CO/N=C(\C(=O)N[C@@H]1C(=O)N2C(C(=O)O)=C(COC(C)=O)CS[C@H]12)c1csc(N)n1 [CEFOTAXIME] the IC50 was “Not Active”. In the case of CNC1=Nc2ccc(Cl)cc2C(c2ccccc2)=[N+]([O-])C1 [CHLORDIAZEPOXIDE], the IC50 is reported as “Not Active”.
